Data on six molecules can be found in patent US4100284A, “1,4-Dioxo- and 4-oxoquinoxaline-2-carboxaldehyde sulfonylhydrazones and certain derivatives thereof” (Pfizer Inc., priority 1977, dated 1978).

≈ marks a conversion by molar mass, not a printed value.

The test system of test [1] is Salmonella cholerasuis. The test is described as follows: In vivo protection of mice against a lethal challenge of Salmonella cholerasuis. As to conditions: at 25 mg./Kg., multiple dosing. The method, then: The compounds of formula (I) also show antibacterial activity in vivo. In determining such activity, the test compound is administered to mice which have been infected by intraperitoneal injection of a lethal inoculum of pathogenic bacteria. The test compound is administered using a multiple dosing regimen, and using either the oral (PO) or the subcutaneous (SC) route. The inoculum of bacteria varies from one to about ten times the amount needed to kill 100% of the mice, under the conditions of the test. At the end of the test, the activity of a compound is assessed by counting the number of survivors among the treated animals. Results are also given in Table I, wherein the ability of the compound to protect mice against a lethal challenge of Salmonella cholerasuis is presented.

In test [2] the test system is Salmonella cholerasuis. The test is described as follows: In vitro antibacterial activity, two-fold serial dilution in Brain-Heart Infusion broth (MIC). The format is cell-based. As to conditions: anaerobic, overnight. How it is done: (§1) The broth is inoculated with bacteria, and with the test compound of formula (I), and then it is incubated overnight under anaerobic conditions. On the next day, the test is read visually. The minimum inhibitory concentration (MIC) of test compound is the lowest concentration which prevents turbidity, i.e., which prevents growth of the microoganism.

The test system of another test is Staph. aureus. Described as above. The format is cell-based. To be noted: Staphylococcus aureus, anaerobic, overnight. The method, then: as §1
The test system of the next test is Strep. pyogenes. The test is described as above. The format is cell-based. As to conditions: Streptococcus pyogenes, anaerobic, overnight. The method, then:
as §1

The test system of another test is Pasteurella multocida. The description is as above. The format is cell-based. To be noted: anaerobic, overnight. The method, then:
as §1

A further test relates to E. Coli. The test is described as above. The format is cell-based. As to conditions: Escherichia coli, anaerobic, overnight. How it is done:
as §1

Turning to `Cc1ccc(S(=O)(=O)NN=Cc2c[n+]([O-])c3ccccc3n2)cc1` [N, H, H, 4-CH3 C6 H4, 4-Oxoquinoxaline-2-carboxaldehyde p-Toluenesulfonylhydrazone], in the test on Salmonella cholerasuis [1], the “% Survivors vs. Sal. Cholarasuis, PO” value came out at 60%. Also, the “% Survivors vs. Sal. Cholarasuis, SC” value with Salmonella cholerasuis [1] came out at 100%. In addition, the MIC was 3.12 µg/mL (≈ 9.13 µM) against Salmonella cholerasuis [2]; 25 µg/mL (≈ 73 µM) against Staph. aureus; 12.5 µg/mL (≈ 36.5 µM) against Strep. pyogenes; 3.12 µg/mL (≈ 9.13 µM) against Pasteurella multocida; 3.12 µg/mL (≈ 9.13 µM) against E. Coli.
Take `O=S(=O)(NN=Cc1c[n+]([O-])c2ccccc2[n+]1[O-])c1ccccc1` [N → O, H, H, C6 H5, 1,4-Dioxoquinoxaline-2-carboxaldehyde Benzenesulfonylhydrazone]: the minimal inhibitory concentration (MIC) in the test with Salmonella cholerasuis [2] came to 12.5 µg/mL (≈ 36.3 µM); with Staph. aureus, 100 µg/mL (≈ 290 µM); with Strep. pyogenes, 25 µg/mL (≈ 72.6 µM); against Pasteurella multocida, 12.5 µg/mL (≈ 36.3 µM); against E. Coli, 12.5 µg/mL (≈ 36.3 µM).
Regarding `CS(=O)(=O)NN=Cc1c[n+]([O-])c2ccccc2[n+]1[O-]` [N → O, H, H, CH3], the “% Survivors vs. Sal. Cholarasuis, PO” value with Salmonella cholerasuis [1] was found to be 10%. The “% Survivors vs. Sal. Cholarasuis, SC” value with Salmonella cholerasuis [1] was 60%. The MIC against Salmonella cholerasuis [2] worked out at 6.25 µg/mL (≈ 22.1 µM); with Staph. aureus it was 25 µg/mL (≈ 88.6 µM); in the test on Strep. pyogenes, 12.5 µg/mL (≈ 44.3 µM); in the test with Pasteurella multocida it was 12.5 µg/mL (≈ 44.3 µM); against E. Coli it was 3.12 µg/mL (≈ 11.1 µM).
Take `Cc1ccc(S(=O)(=O)NN=Cc2c[n+]([O-])c3ccccc3[n+]2[O-])cc1` [N → O, H, H, 4-CH3 C6 H4, 1,4-Dioxoquinoxaline-2-carboxaldehyde p-Toluenesulfonylhydrazone]: in the test with Salmonella cholerasuis [1], the “% Survivors vs. Sal. Cholarasuis, PO” value was determined as 30%. For the same molecule, the “% Survivors vs. Sal. Cholarasuis, SC” value in the test on Salmonella cholerasuis [1] came out at 100%. Also, the MIC against Salmonella cholerasuis [2] was found to be 6.25 µg/mL (≈ 17.4 µM); with Staph. aureus, 25 µg/mL (≈ 69.8 µM); with Strep. pyogenes it was 12.5 µg/mL (≈ 34.9 µM); in the test on Pasteurella multocida, 3.12 µg/mL (≈ 8.72 µM); in the test with E. Coli, 1.56 µg/mL (≈ 4.35 µM).
For `O=S(=O)(NN=Cc1c[n+]([O-])c2ccccc2[n+]1[O-])c1ccc(F)cc1` [N → O, H, H, 4-FC6 H4], the “% Survivors vs. Sal. Cholarasuis, PO” value in the test with Salmonella cholerasuis [1] is reported as 10%. Besides, the “% Survivors vs. Sal. Cholarasuis, SC” value with Salmonella cholerasuis [1] was found to be 30%. Besides, the MIC against Salmonella cholerasuis [2] was 6.25 µg/mL (≈ 17.2 µM); in the test on Staph. aureus, 25 µg/mL (≈ 69 µM); against Strep. pyogenes, 12.5 µg/mL (≈ 34.5 µM); in the test with Pasteurella multocida it was 3.12 µg/mL (≈ 8.62 µM); with E. Coli it was 3.12 µg/mL (≈ 8.62 µM).
Consider `COc1ccc(S(=O)(=O)NN=Cc2c[n+]([O-])c3ccccc3n2)cc1` [N, H, H, 4-CH3 OC6 H4, 4-Oxoquinoxaline-2-carboxaldehyde p-Methoxybenzenesulfonylhydrazone], for which the MIC against Salmonella cholerasuis [2] was found to be 6.25 µg/mL (≈ 17.4 µM); with Staph. aureus, 12.5 µg/mL (≈ 34.9 µM); against Strep. pyogenes it was 6.25 µg/mL (≈ 17.4 µM); against Pasteurella multocida, 1.56 µg/mL (≈ 4.35 µM); in the test on E. Coli it was 3.12 µg/mL (≈ 8.72 µM).

The term MIC denotes the lowest concentration found to suppress growth.
